Columns and labels:
Test in all cases: relative viability (nuclei count vs DMSO), 5 days (fraction); higher = more cells survive
GSK126 + Tozasertib = compound: CC[C@H](C)N1C=C(C2=C(C=C(C=C21)C3=CN=C(C=C3)N4CCNCC4)C(=O)NCC5=C(C=C(NC5=O)C)C)C [GSK126] + Cc1cc(Nc2cc(N3CCN(C)CC3)nc(Sc3ccc(NC(=O)C4CC4)cc3)n2)n[nH]1 [Tozasertib] (partner 0.1 µM)
Summary of the method: (§1)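 Values are medians from duplicate plates. Each reflects relative viability, defined as the nuclei count of treated wells over that of vehicle wells. Lung cancer cell lines in 1536-well plates were pin-tool dosed one day after seeding with one drug alone or with a fixed anchor-drug dose plus five library-drug doses (not always all listed) in √10 steps, then fixed, stained and imaged at 4× after 5 days.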

GSK126 + Trametinib = compound: CC[C@H](C)N1C=C(C2=C(C=C(C=C21)C3=CN=C(C=C3)N4CCNCC4)C(=O)NCC5=C(C=C(NC5=O)C)C)C [GSK126] + CC(=O)Nc1cccc(-n2c(=O)n(C3CC3)c(=O)c3c(Nc4ccc(I)cc4F)n(C)c(=O)c(C)c32)c1 [Trametinib] (partner 0.02 µM)
Summary of the method: as §1

GSK126 + Palbociclib = compound: CC[C@H](C)N1C=C(C2=C(C=C(C=C21)C3=CN=C(C=C3)N4CCNCC4)C(=O)NCC5=C(C=C(NC5=O)C)C)C [GSK126] + CC(=O)c1c(C)c2cnc(Nc3ccc(N4CCNCC4)cn3)nc2n(C2CCCC2)c1=O [Palbociclib] (partner 0.5 µM)
Summary of the method: as §1

GSK126 + Alpelisib = compound: CC[C@H](C)N1C=C(C2=C(C=C(C=C21)C3=CN=C(C=C3)N4CCNCC4)C(=O)NCC5=C(C=C(NC5=O)C)C)C [GSK126] + Cc1nc(NC(=O)N2CCC[C@H]2C(N)=O)sc1-c1ccnc(C(C)(C)C(F)(F)F)c1 [Alpelisib] (partner 2 µM)
Summary of the method: as §1

UMC-11
relative viability (GSK126 + Tozasertib; first compound 0.08 µM): 0.205
relative viability (GSK126 + Tozasertib; first compound 0.253 µM): 0.209
relative viability (GSK126 + Tozasertib; first compound 0.8 µM): 0.197
relative viability (GSK126 + Tozasertib; first compound 2.53 µM): 0.188
relative viability (GSK126 + Tozasertib; first compound 8 µM): 0.199
relative viability (GSK126 + Trametinib; first compound 0.08 µM): 0.744
relative viability (GSK126 + Trametinib; first compound 0.253 µM): 0.774
relative viability (GSK126 + Trametinib; first compound 0.8 µM): 0.771
relative viability (GSK126 + Trametinib; first compound 2.53 µM): 0.714
relative viability (GSK126 + Trametinib; first compound 8 µM): 0.728
relative viability (GSK126 + Palbociclib; first compound 0.08 µM): 0.353
relative viability (GSK126 + Palbociclib; first compound 0.253 µM): 0.32
relative viability (GSK126 + Palbociclib; first compound 0.8 µM): 0.328
relative viability (GSK126 + Palbociclib; first compound 2.53 µM): 0.405
relative viability (GSK126 + Palbociclib; first compound 8 µM): 0.344
relative viability (GSK126 + Alpelisib; first compound 0.08 µM): 1.03
relative viability (GSK126 + Alpelisib; first compound 0.253 µM): 1.1
relative viability (GSK126 + Alpelisib; first compound 0.8 µM): 0.983
relative viability (GSK126 + Alpelisib; first compound 2.53 µM): 0.961
relative viability (GSK126 + Alpelisib; first compound 8 µM): 1.17

Source: the supplement of paper PMC10307832
